Assay results taken from patent publication US6448251B1, “Zwitterionic-fatty acid compounds having anti-inflammatory properties” (priority 1997, dated 2002).
Read-outs that look alike come from different tables or passages of the source.

Experiments:
inflammation = conditions: cited from earlier work
[1] = intravenous injection, radiolabelled; cited from earlier work
[2] = test system: erythema induced by the capsaicin; test: Protocol II dermal irritation: capsaicin-induced erythema on human forearm, infra-red reflection; format: in vivo; conditions: 0.1% capsaicin on forearm of human volunteer; candidate applied when erythema appeared 10-15 minutes later; optical reflection at 818 nanometers measured 30 minutes later; baseline control 3.5, capsaicin only 0.5
Excerpt: A new screening method was developed to make rapid assessments on the anti-inflammatory action of the new candidates. The procedure involved the use of a natural irritant, capsaicin*, which candidate is derived from crushed hot peppers (capsicum), and measuring the amount of erythema reduction by the test candidates. Inflammatory reaction are characterzed by pain and tenderness associated with swelling and redness. Most of these clinical signs are attributed to the large influx of blood into the area. Vaso-constricting agents can reduce the amount of swelling and erythema. Hydrocortisone is, in fact, assayed by its ability to blanch the skin, which is a vasoconstrictive effect. Applying a solution of 0.1% of capsaicin to the forearm of a human volunteer will produce an erythema in less than 20 minutes, usually under five minutes. The degree of erythema is measured with an infra-red detector. An infra-red beam of light at 818 nanometers is directed into the skin over the test sie and the amount of infra-red returned to the surface by reflection indicates the amount absorbed in the skin. An untreated skin area is used as a baseline control, a capsaicin treated area is used as the negative control, and a capsaicin+hydrocortisone (a known vasoconstrictor) serves as the positive control. A positive effect means the erythema induced by the capsaicin is reduced, or is eliminated, as measured by the infra-red detector. The following reults were obtained with this evaluative protocol. The capsaicin was applied to the skin, and when erythema appeared 10-15 minutes later, the test candidate agent was applied, and the optical reflection measurements were made 30 minutes later.

| Compound | clearance [1] | Millivolts (reflection voltage) [2] [Millivolts] | further results |
| --- | --- | --- | --- |
| O=S(=O)(O)CCN1CCN(CCO)CC1 [HEPES, 4-(2-Hydroxyethyl)-1-piperazine-ethanesulfonic acid] | rapid clearance | – | anti-inflammatory effects compared with taurine (inflammation; HEPES sodium salt and the acid, Mahon et al): greater anti-inflammatory effects; half-life compared with taurine [1]: significantly longer half-life |
| CC(=O)OCCN1CCN(CCS(=O)(=O)[O-])CC1.[Na+] [Compound VI, Hepes-Acetate Ester] | – | 3.0 | – |
| HEPES oleate, sodium salt [Compound I] | – | 3.7 | – |
| CCCCCC=CCC=CCCCCCCCC(=O)OCCN1CCN(CCS(=O)(=O)O)CC1 [Compound V, Hepes-Linoleate Ester] | – | 3.8 | – |
| NCCS(=O)(=O)O [taurine, 2-amino ethanesulfonic acid] | rapid clearance | – | anti-inflammatory activity (inflammation; administered centrally): demonstrated anti-inflammatory activity; anti-inflammatory activity (inflammation; administered subcutaneously or interperitoneally): not |
| C[C@]12CCC(=O)C=C1CC[C@@H]1[C@@H]2[C@@H](O)C[C@@]2(C)[C@H]1CC[C@]2(O)C(=O)CO [Hydrocortisone] | – | 5.0 | – |
